Assay results reported in ChEMBL document CHEMBL1201862, “PubChem BioAssay data set” (2004).
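Values below derive from 48-hour exposures of cells grown in 96-well plates, with endpoints linearly interpolated between the two concentrations bracketing the appropriate inhibition level. GI50 = concentration required for 50% inhibition of growth.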 Calls of active or inactive are those of the source. No stated cut-off is given here; in the data, active = GI50 up to about 1.1 µM and inactive = higher.

Key:
Test in all cases: NCI-60 cell line screen, 48 h
[1] = test system: UACC-62
[2] = test system: HOP-62
[3] = test system: RXF 393
[4] = test system: T47D
[5] = test system: HCT-116
[6] = test system: PC-3
[7] = test system: COLO 205
[8] = test system: MDA-MB-435
[9] = test system: OVCAR-3
[10] = test system: SK-MEL-5
[11] = test system: U-251
[12] = test system: SK-MEL-28
[13] = test system: SF-295
[14] = test system: NCI-H226
[15] = test system: NCI-H460
[16] = test system: CAKI-1
[17] = test system: Malme-3M
[18] = test system: SF-539
[19] = test system: SNB-19
[20] = test system: DU-145
[21] = test system: SW-620
[22] = test system: SN12C
[23] = test system: SR
[24] = test system: LOX IMVI
[25] = test system: SK-OV-3
[26] = test system: TK-10
[27] = test system: MOLT-4
[28] = test system: ACHN
[29] = test system: SF-268
[30] = test system: OVCAR-8
[31] = test system: MCF7
[32] = test system: M14
[33] = test system: NCI-H522
[34] = test system: BT-549
[35] = test system: RPMI-8226
[36] = test system: HOP-92
[37] = test system: HCT-15
[38] = test system: OVCAR-4
[39] = test system: SK-MEL-2
[40] = test system: Hs-578T
[41] = test system: 786-0
[42] = test system: OVCAR-5
[43] = test system: IGROV-1
[44] = test system: EKVX
[45] = test system: UACC-257
[46] = test system: HT-29
[47] = test system: NCI-H23
[48] = test system: SNB-75
[49] = test system: UO-31
[50] = test system: HL-60
[51] = test system: MDA-MB-231
[52] = test system: MDA-N
[53] = test system: A498
[54] = test system: HCC 2998
[55] = test system: K562
[56] = test system: KM12
[57] = test system: NCI/ADR-RES
[58] = test system: A549
[59] = test system: CCRF-CEM

Which GI50 [1] does the source give for `Cc1cn(S(=O)(=O)c2ccccc2)c2c(OCc3ccccc3)cc(NS(C)(=O)=O)cc12` here?
The GI50 was 17.9 µM (inactive).

What about the GI50 [2] of the same molecule?
Its GI50 is 50.2 µM (inactive).

What about the GI50 [3] of the same molecule?
The GI50 was 14.6 µM (inactive).

What about the GI50 [4] of the same molecule?
Its GI50 is 4.72 µM (inactive).

And the GI50 [5]?
The GI50 was 9.12 µM (inactive).

What about the GI50 [6] of the same molecule?
Its GI50 is 3.92 µM (inactive).

What about the GI50 [7] of the same molecule?
Its GI50 is 10.3 µM (inactive).

What about the GI50 [8] of the same molecule?
The GI50 was 9.64 µM (inactive).

What about the GI50 [9] of the same molecule?
The GI50 was 10.6 µM (inactive).

What about the GI50 [10] of the same molecule?
Its GI50 is 4.35 µM (inactive).

What about the GI50 [11] of the same molecule?
The GI50 was 10.6 µM (inactive).

And the GI50 [12]?
The GI50 was 52.8 µM (inactive).

What about the GI50 [13] of the same molecule?
The GI50 was 14.7 µM (inactive).

And the GI50 [14]?
The GI50 was 16.1 µM (inactive).

And the GI50 [15]?
Its GI50 is 18.5 µM (inactive).

What about the GI50 [16] of the same molecule?
The GI50 was 72.3 µM (inactive).

And the GI50 [17]?
Its GI50 is 8.38 µM (inactive).

And the GI50 [18]?
Its GI50 is 38.8 µM (inactive).

And the GI50 [19]?
Its GI50 is 43.3 µM (inactive).

What about the GI50 [20] of the same molecule?
The GI50 was 31.3 µM (inactive).

What about the GI50 [21] of the same molecule?
The GI50 was 17.8 µM (inactive).

And the GI50 [22]?
The GI50 was 13.7 µM (inactive).

And the GI50 [23]?
The GI50 was 4.98 µM (inactive).

And the GI50 [24]?
The GI50 was 11.4 µM (inactive).

What about the GI50 [25] of the same molecule?
Its GI50 is 40.9 µM (inactive).

And the GI50 [26]?
The GI50 was > 85.9 µM (inactive).

What about the GI50 [27] of the same molecule?
The GI50 was 3.45 µM (inactive).

What about the GI50 [28] of the same molecule?
Its GI50 is 20.4 µM (inactive).

What about the GI50 [29] of the same molecule?
The GI50 was 14 µM (inactive).

What about the GI50 [30] of the same molecule?
Its GI50 is 32 µM (inactive).

What about the GI50 [31] of the same molecule?
The GI50 was 6.98 µM (inactive).

And the GI50 [32]?
The GI50 was 19.2 µM (inactive).

And the GI50 [33]?
The GI50 was 18.8 µM (inactive).

And the GI50 [34]?
Its GI50 is 27.6 µM (inactive).

And the GI50 [35]?
The GI50 was 13.2 µM (inactive).

What about the GI50 [36] of the same molecule?
Its GI50 is 27.2 µM (inactive).

And the GI50 [37]?
Its GI50 is 12.9 µM.

And the GI50 [38]?
Its GI50 is 6.35 µM (inactive).

What about the GI50 [39] of the same molecule?
Its GI50 is 18.1 µM (inactive).

What about the GI50 [40] of the same molecule?
The GI50 was 39.5 µM (inactive).

What about the GI50 [41] of the same molecule?
The GI50 was 16.4 µM (inactive).

And the GI50 [42]?
The GI50 was 61.8 µM (inactive).

What about the GI50 [43] of the same molecule?
The GI50 was 33 µM (inactive).

And the GI50 [44]?
Its GI50 is 5.35 µM (inactive).

And the GI50 [45]?
The GI50 was 10.1 µM (inactive).

And the GI50 [46]?
The GI50 was 4.42 µM (inactive).

What about the GI50 [47] of the same molecule?
The GI50 was 16 µM (inactive).

What about the GI50 [48] of the same molecule?
The GI50 was 22.9 µM (inactive).

What about the GI50 [49] of the same molecule?
Its GI50 is 17.7 µM (inactive).

What about the GI50 [50] of the same molecule?
The GI50 was 4.52 µM (inactive).

What about the GI50 [51] of the same molecule?
Its GI50 is 9.66 µM (inactive).

And the GI50 [52]?
The GI50 was 10.7 µM (inactive).

What about the GI50 [53] of the same molecule?
Its GI50 is 8.15 µM (inactive).

What about the GI50 [54] of the same molecule?
Its GI50 is 24.4 µM (inactive).

And the GI50 [55]?
Its GI50 is 20.1 µM (inactive).

And the GI50 [56]?
The GI50 was 10.9 µM (inactive).

And the GI50 [57]?
Its GI50 is 14.9 µM (inactive).

What about the GI50 [58] of the same molecule?
Its GI50 is 9.82 µM (inactive).

For `CC1=NN(c2nc(N)nc(CBr)n2)C(C)(C)C1`, which GI50 [1] is on record?
Its GI50 is 7.28 µM (inactive).

And the GI50 [2]?
Its GI50 is 19.7 µM (inactive).

What about the GI50 [3] of the same molecule?
The GI50 was 2.78 µM (inactive).

And the GI50 [59]?
The GI50 was 0.229 µM (active).

What about the GI50 [4] of the same molecule?
The GI50 was 5.97 µM (inactive).

What about the GI50 [5] of the same molecule?
The GI50 was 6.27 µM (inactive).

And the GI50 [6]?
Its GI50 is 5.33 µM (inactive).

What about the GI50 [7] of the same molecule?
The GI50 was 3.03 µM (inactive).

What about the GI50 [8] of the same molecule?
The GI50 was 11 µM (inactive).

And the GI50 [9]?
The GI50 was 3.42 µM (inactive).

What about the GI50 [10] of the same molecule?
The GI50 was 11.3 µM (inactive).

What about the GI50 [11] of the same molecule?
The GI50 was 6.76 µM (inactive).

And the GI50 [12]?
The GI50 was 13.7 µM (inactive).

What about the GI50 [13] of the same molecule?
The GI50 was 12.1 µM (inactive).

What about the GI50 [14] of the same molecule?
Its GI50 is 2.61 µM (inactive).

What about the GI50 [15] of the same molecule?
The GI50 was 7.64 µM (inactive).

What about the GI50 [16] of the same molecule?
Its GI50 is 1.47 µM (inactive).

What about the GI50 [17] of the same molecule?
Its GI50 is 2.45 µM (inactive).

And the GI50 [18]?
The GI50 was 2.3 µM (inactive).

What about the GI50 [19] of the same molecule?
The GI50 was 16.7 µM (inactive).

And the GI50 [20]?
The GI50 was 3.3 µM (inactive).

And the GI50 [21]?
The GI50 was 4.19 µM (inactive).

And the GI50 [22]?
Its GI50 is 5.22 µM (inactive).

What about the GI50 [23] of the same molecule?
Its GI50 is 2.88 µM (inactive).

And the GI50 [24]?
The GI50 was 0.708 µM (active).

And the GI50 [25]?
Its GI50 is 17.3 µM (inactive).

What about the GI50 [26] of the same molecule?
Its GI50 is 4.25 µM (inactive).

What about the GI50 [27] of the same molecule?
The GI50 was 1.61 µM (inactive).

And the GI50 [28]?
Its GI50 is 3.56 µM (inactive).

What about the GI50 [29] of the same molecule?
Its GI50 is 6.01 µM (inactive).

What about the GI50 [30] of the same molecule?
The GI50 was 5.45 µM (inactive).

What about the GI50 [31] of the same molecule?
Its GI50 is 2.47 µM (inactive).

And the GI50 [32]?
Its GI50 is 5.79 µM (inactive).

And the GI50 [33]?
Its GI50 is 0.234 µM (active).

What about the GI50 [34] of the same molecule?
Its GI50 is 11.8 µM (inactive).

And the GI50 [35]?
The GI50 was 1.13 µM (inactive).

What about the GI50 [36] of the same molecule?
Its GI50 is 0.436 µM (active).

And the GI50 [37]?
The GI50 was 3.61 µM.

And the GI50 [38]?
Its GI50 is 7.4 µM (inactive).

What about the GI50 [39] of the same molecule?
The GI50 was 12.9 µM (inactive).

What about the GI50 [40] of the same molecule?
The GI50 was 13.9 µM (inactive).

And the GI50 [41]?
The GI50 was 0.692 µM (active).

What about the GI50 [42] of the same molecule?
The GI50 was 3.71 µM (inactive).

And the GI50 [43]?
Its GI50 is 1.49 µM (inactive).

And the GI50 [44]?
Its GI50 is 3.66 µM (inactive).

What about the GI50 [45] of the same molecule?
Its GI50 is 11.9 µM (inactive).

What about the GI50 [46] of the same molecule?
Its GI50 is 4.98 µM (inactive).

And the GI50 [47]?
The GI50 was 9.86 µM (inactive).

What about the GI50 [48] of the same molecule?
Its GI50 is 9.75 µM (inactive).

And the GI50 [49]?
The GI50 was 0.384 µM (active).

And the GI50 [50]?
The GI50 was 0.975 µM (active).

What about the GI50 [51] of the same molecule?
Its GI50 is 7.18 µM (inactive).

What about the GI50 [52] of the same molecule?
Its GI50 is 11.5 µM (inactive).

What about the GI50 [53] of the same molecule?
The GI50 was 12.9 µM (inactive).

What about the GI50 [54] of the same molecule?
Its GI50 is 16.1 µM (inactive).

What about the GI50 [55] of the same molecule?
Its GI50 is 2.02 µM (inactive).

What about the GI50 [56] of the same molecule?
Its GI50 is 10.7 µM (inactive).

And the GI50 [57]?
Its GI50 is 17.7 µM (inactive).

And the GI50 [58]?
Its GI50 is 12.6 µM (inactive).
